According to US8188138B2, “Sulphonylpyrrole hydrochloride salts as histone deacetylases inhibitors” (4SC AG, priority 2005, dated 2012):
Where two headings read alike, the source gives them in different places.

What was measured:
[1] = test system: MDA-MB468 breast cancer cells; assay: Breast cancer cell differentiation assay (Nile Red, flow cytometry); format: cell-based; conditions: 24 h; for Neutral & phospholipids (%): differentiated cells; for Phospholipids (%): undifferentiated cells
Description: For quantification of MDA-MB468 breast cancer cell differentiation (described by Munster et al. Canc. Res. 61(23), pp 8492, 2001), 1× E6 cells were seeded in 10 cm cell culture dishes and, after cultivation for 24 h, treated with HDI for further 24 h. Finally, cells were collected by trypsination, washed twice with PBS and resuspended in 1 ml of staining solution ([…] Nile Red in PBS). After incubation for at least 5 min at room temperature, cells were analysed by flow cytometry on a FACS Calibur device (Ex 488 nm, Em. at 530 nm/FL-1 and >630 nm/FL-3). From respective histograms the percentage of cells with fluorescence at 650 nm (phospholipids) and 530 nm+650 nm (phospho- and neutral lipids) were calculated. For microscopic analysis, MDA-MB468 cells were cultivated on two-well chamber slides, treated with test compound for 24 h, fixed with 1.5 vol % glutaraldehyde/PBS and finally treated with staining solution. After washing with PBS, cells were analysed by fluorescence microscopy.
The percentage of differentiated cells with neutral and phospholipids as well as undifferentiated cells with phospholipids only are summarized in the table 5.

[2] = test system: RKO colon carcinoma cells; assay: Cell-cycle dependent cytotoxicity, RKO exop21 cell system; format: cell-based; conditions: Homo sapiens, 72 h, range stated for the listed group
Description: For determination of cell-cycle dependent cytotoxicity, the RKO exop21 cell system was applied (Schmidt et al. Oncogene 19: 2423-2429, 2000). Briefly, RKO cells with/without p21^waf1 expression (2×10^4 cells/well induced, 6×10^3 cells/well not induced) were treated with the examples for 72 h and metabolic activity quantified as described before. The expression of p21^waf1 was induced by treatment with Pronasterone A, causing a complete proliferation arrest of RKO cells in the G1 and G2 phases of the cell division cycle.

[3] = test system: HeLa cervical carcinoma cells; assay: Cellular cytotoxicity assay (Alamar Blue), HeLa; format: cell-based; conditions: Homo sapiens, 72 h, range stated for the listed group
Description: (§1) The anti-proliferative activity of the histone deacetylase inhibitory compounds as described herein, was evaluated using the following cell lines: HeLa and HeLa—KB (cervical carcinoma), H460 (non small cell lung cancer), A549 (non-small cell lung cancer), MCF7 (breast carcinoma), MCF10A (normal, non tumorigenic breast epithelial), MDA-MB468 (breast carcinoma), MDA-MB435 (breast carcinoma), MDA-MB231 (breast carcinoma), SKBR-3 (breast carcinoma), SKOV-3 (ovarial carcinoma), A-2780 (ovarial carcinoma), RKO (colon carcinoma), HCT-15 (colon carcinoma), HCT-116 (colon carcinoma), PC3 (prostate carcinoma), BPH1 (benign prostate hyperplasia), AsPC1 (pancreatic carcinoma), Cal27 (tongue carcinoma), A-431 (vulva carcinoma), HeclA (endometrial carcinoma), Saos-2 (osteosarcoma), U87MG (glioblastoma), WM266-4 (melanoma), K562 (chronic myeloid carcinoma), EOL1 (acute hypereosinophilic myeloid leukemia), CCRF-CEM and CCRF-CEM VCR1000 (acute lymphoblastic leukemia sensitive and resistant towards Vincristine). For quantification of cellular proliferation/living cells the Alamar Blue (Resazurin) cell viability assay was applied (O'Brien et al. Eur J Biochem 267, 5421-5426, 2000). In this assay Resazurin is reduced to the fluorescent resorufin by cellular dehydrogenase activity, correlating with viable, proliferating cells. The examples were dissolved as 20 mM solutions in dimethylsulfoxide (DMSO) and subsequently diluted in semi-logarithmic steps. Cell lines were seeded at respective density into 96 well flat bottom plates in a volume of 200 μl per well. 24 hours after seeding 1 μl each of the compound dilutions were added into each well of the 96 well plate. Each compound dilution was tested as quadruplicates. Wells containing untreated control cells were filled with 200 μl DMEM medium containing 0.5% v:v DMSO. The cells were then incubated with the substances for 72 hours at 37° C. in a humidified atmosphere containing 5% carbon dioxide. To determine the viability of the cells, 20 μl of an Resazurin solution (Sigma; 90 mg/l) were added. After 4 hours incubation at 37° C. the fluorescence was measured at an extinction of 544 nm and an emission of 590 nm. For the calculation of the cell viability the emission value from untreated cells was set as 100% viability and the emission rates of treated cells were set in relation to the values of untreated cells. Viabilities were expressed as % values. The corresponding IC50 values of the compounds for cytotoxic activity are determined from the concentration-effect curves by means of non-linear regression.

[4] = test system: broad selection of non-malignant cell lines and fully transformed malignant cancer cell lines; assay: Anti-proliferative activity across cell line panel (Alamar Blue); format: cell-based; conditions: mean over non-malignant and malignant cell lines
Description: as §1

[5] = test system: A549 cell line; assay: Combination experiment with Trail in A549; format: cell-based; conditions: example at about its IC50 combined with Trail
Description: A549 non-small cell lung cancer, MDA-MB468 breast cancer and […] colorectal cancer cell lines were pretreated with the examples for 4 h before adding the chemotherapeutic agents or Trail and further incubation for 72 h total. The IC50 values of these combinations were determined from concentration-effect curves and compared to IC50 values of cell treated with the anti-cancer agent only.

[6] = arrested RKO cells, p21waf1 expressed, read-out: RKO arrested (p21^waf1 expressed) IC50
[7] = proliferating RKO cells, read-out: RKO proliferating IC50

Structure (SMILES) | IC50 [3] [µM] | melting point [°C] | other results
O=C(/C=C/c1ccn(S(=O)(=O)c2ccc(-c3ccccc3)cc2)c1)NO [Compound 3, (E)-3-[1-(Biphenyl-4-sulfonyl)-1H-pyrrol-3-yl]-N-hydroxy-acrylamide] | 0.8 to 21.6 |  | Neutral & phospholipids (%) ([1]; 0.6 μM): 34.6%; Phospholipids (%) ([1]; 0.6 μM): 62.6%; Neutral & phospholipids (%) ([1]; 1.2 μM): 51.2%; Phospholipids (%) ([1]; 1.2 μM): 45.7%; IC50 [2, 6]: 0.45 to 15 µM; IC50 [2, 7]: 0.15 to 5.1 µM; IC50 [4]: 0.85 µM; Effect of combination with Trail [5]: synergism is highly likely
CN(C)c1ccc(S(=O)(=O)n2ccc(/C=C/C(=O)Nc3ccccc3N)c2)cc1 [Compound 8, (E)-N-(2-Amino-phenyl)-3-[1-(4-dimethylamino-benzenesulfonyl)-1H-pyrrol-3-yl]-acrylamide] | 0.8 to 21.6 |  | 
CN(CCc1cc2ccccc2[nH]1)Cc1ccc(S(=O)(=O)n2ccc(/C=C/C(=O)NO)c2)cc1 [Compound 9, (E)-N-Hydroxy-3-(1-[4-(([2-(1H-indol-2-yl)-ethyl]-methyl-amino)-methyl)-benzenesulfonyl]-1H-pyrrol-3-yl)-acrylamide] | 0.07 to 5 |  | Neutral & phospholipids (%) ([1]; 3 μM): 71.2%; Phospholipids (%) ([1]; 3 μM): 25.3%; Neutral & phospholipids (%) ([1]; 6 μM): 64.6%; Phospholipids (%) ([1]; 6 μM): 27.9%; IC50 [2, 6]: 0.45 to 15 µM; IC50 [2, 7]: 0.15 to 5.1 µM; IC50 [4]: 3.7 µM; Effect of combination with Trail [5]: synergism is highly likely
O=C(/C=C/c1ccn(S(=O)(=O)c2ccc(CNCc3cccnc3)cc2)c1)NO [Compound 11, (E)-N-Hydroxy-3-[1-(4-{[(pyridin-3-ylmethyl)-amino]-methyl}-benzenesulfonyl)-1H-pyrrol-3-yl]-acrylamide] | 0.07 to 5 |  | 
O=C(/C=C/c1ccn(S(=O)(=O)c2ccc(CNCc3c[nH]c4ccccc34)cc2)c1)NO [Compound 12, (E)-N-Hydroxy-3-[1-(4-{[(1H-indol-3-ylmethyl)-amino]-methyl}-benzenesulfonyl)-1H-pyrrol-3-yl]-acrylamide] | 0.07 to 5 |  | 
O=C(/C=C/c1ccn(S(=O)(=O)c2ccc(CNCc3ccccc3)cc2)c1)NO [Compound 13, (E)-3-{1-[4-(Benzylamino-methyl)-benzenesulfonyl]-1H-pyrrol-3-yl}-N-hydroxy-acrylamide] | 0.07 to 5 |  | 
CC(C)CNCc1ccc(S(=O)(=O)n2ccc(/C=C/C(=O)NO)c2)cc1 [Compound 14, (E)-N-Hydroxy-3-{1-[4-(isobutylamino-methyl)-benzenesulfonyl]-1H-pyrrol-3-yl}-acrylamide] | 0.07 to 5 |  | 
O=C(/C=C/c1ccn(S(=O)(=O)c2ccc(CNCc3ccc4[nH]ccc4c3)cc2)c1)NO [Compound 15, (E)-N-Hydroxy-3-[1-(4-{[(1H-indol-5-ylmethyl)-amino]-methyl}-benzenesulfonyl)-1H-pyrrol-3-yl]-acrylamide] | 0.07 to 5 |  | 
O=C(/C=C/c1ccn(S(=O)(=O)c2ccc(CNCc3ccncc3)cc2)c1)NO [Compound 16, (E)-N-Hydroxy-3-[1-(4-{[(pyridin-4-ylmethyl)-amino]-methyl}-benzenesulfonyl)-1H-pyrrol-3-yl]-acrylamide] | 0.07 to 5 |  | 
NCc1ccc(S(=O)(=O)n2ccc(/C=C/C(=O)NO)c2)cc1 [Compound 17, (E)-3-[1-(4-Aminomethyl-benzenesulfonyl)-1H-pyrrol-3-yl]-N-hydroxy-acrylamide] | 0.07 to 5 | 227 to 228.6 | 
O=C(/C=C/c1ccn(S(=O)(=O)c2ccc(-c3ccncc3)cc2)c1)NO [Compound 18, (E)-N-Hydroxy-3-[1-(4-pyridin-4-yl-benzenesulfonyl)-1H-pyrrol-3-yl]-acrylamide] | 0.07 to 5 | 219.3 to 221.4 | 
O=C(/C=C/c1ccn(S(=O)(=O)c2ccc(-c3cn[nH]c3)cc2)c1)NO [Compound 19, (E)-N-Hydroxy-3-[1-[4-(1H-pyrazol-4-yl)-benzenesulfonyl]-1H-pyrrol-3-yl]acrylamide] | 0.07 to 5 |  | 
Nc1ccccc1NC(=O)/C=C/c1ccn(S(=O)(=O)c2ccc(-c3ccncc3)cc2)c1 [Compound 20, (E)-N-(2-Amino-phenyl)-3-[1-(4-pyridin-4-yl-benzenesulfonyl)-1H-pyrrol-3-yl]-acrylamide] | 0.07 to 5 | 244.2 to 246.5 | 
Nc1ccccc1NC(=O)/C=C/c1ccn(S(=O)(=O)c2ccc(-c3cccnc3)cc2)c1 [Compound 21, (E)-N-(2-Amino-phenyl)-3-[1-(4-pyridin-3-yl-benzenesulfonyl)-1H-pyrrol-3-yl]-acrylamide] | 0.07 to 5 | 199.7 to 202.3 | 
Nc1ccccc1NC(=O)/C=C/c1ccn(S(=O)(=O)c2ccc(-c3cn[nH]c3)cc2)c1 [Compound 22, (E)-N-(2-Amino-phenyl)-3-{1-[4-(1H-pyrazol-4-yl)-benzenesulfonyl]-1H-pyrrol-3-yl}-acrylamide] | 0.07 to 5 | 232.3 to 240.9 | 
O=C(/C=C/c1ccn(S(=O)(=O)c2cccc(-c3ccccc3)c2)c1)NO [Compound 23, (E)-3-[1-(Biphenyl-3-sulfonyl)-1H-pyrrol-3-yl]-N-hydroxy-acrylamide] | 0.07 to 5 | 114 to 159.4 | 
O=C(/C=C/c1ccn(S(=O)(=O)c2ccc(-n3cccn3)cc2)c1)NO [Compound 25, (E)-N-Hydroxy-3-[1-(4-pyrazol-1-yl-benzenesulfonyl)-1H-pyrrol-3-yl]-acrylamide] | 0.07 to 5 | 160.7 to 166.6 | 
Nc1ccccc1NC(=O)/C=C/c1ccn(S(=O)(=O)c2ccc(-c3ccccn3)s2)c1 [Compound 26, (E)-N-(2-Amino-phenyl)-3-[1-(5-pyridin-2-yl-thiophene-2-sulfonyl)-1H-pyrrol-3-yl]-acrylamide] | 0.07 to 5 | 171.3 to 174.7 | 
O=C(/C=C/c1ccn(S(=O)(=O)c2ccc(CN3CCOCC3)cc2)c1)NO [Compound 27, (E)-N-Hydroxy-3-[1-(4-morpholin-4-ylmethyl-benzenesulfonyl)-1H-pyrrol-3-yl]-acrylamide] | 0.07 to 5 | 168 to 170 | 
O=C(/C=C/c1ccn(S(=O)(=O)c2ccc(CN(CCO)CCc3cc4ccccc4[nH]3)cc2)c1)NO [Compound 28, (E)-N-Hydroxy-3-{1-[4-({(2-hydroxy-ethyl)-[2-(1H-indol-2-yl)-ethyl]-amino}-methyl)-benzenesulfonyl]-1H-pyrrol-3-yl}-acrylamide] | 0.07 to 5 |  | 
